Experimental data: ChEMBL document CHEMBL1201862, “PubChem BioAssay data set” (2004)
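Briefly, cells in 96-well plates were exposed to five compound concentrations for 48 h, and endpoints were estimated by linear interpolation. Here, GI50 denotes the concentration required for 50% inhibition of growth.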 The source made the active and inactive calls. Rule as the data show it: active = GI50 up to about 1.1 µM and inactive = higher.

What was measured:
Assay in all cases: growth of human tumour cells (NCI), 48 h
HCC 2998 = test system: HCC 2998
HCT-116 = test system: HCT-116
SNB-19 = test system: SNB-19
UACC-257 = test system: UACC-257
SW-620 = test system: SW-620
NCI-H460 = test system: NCI-H460
MCF7 = test system: MCF7
SN12C = test system: SN12C
SK-MEL-5 = test system: SK-MEL-5
T47D = test system: T47D
SF-539 = test system: SF-539
SF-295 = test system: SF-295
NCI-H226 = test system: NCI-H226
DU-145 = test system: DU-145
NCI/ADR-RES = test system: NCI/ADR-RES
Hs-578T = test system: Hs-578T
RXF 393 = test system: RXF 393
HL-60 = test system: HL-60
ACHN = test system: ACHN
BT-549 = test system: BT-549
OVCAR-3 = test system: OVCAR-3
SF-268 = test system: SF-268
SK-OV-3 = test system: SK-OV-3
U-251 = test system: U-251
SK-MEL-28 = test system: SK-MEL-28
NCI-H522 = test system: NCI-H522
NCI-H23 = test system: NCI-H23
HOP-92 = test system: HOP-92
MDA-MB-231 = test system: MDA-MB-231
K562 = test system: K562
HCT-15 = test system: HCT-15
M14 = test system: M14
OVCAR-8 = test system: OVCAR-8
SNB-75 = test system: SNB-75
TK-10 = test system: TK-10
786-0 = test system: 786-0
A498 = test system: A498
MOLT-4 = test system: MOLT-4
RPMI-8226 = test system: RPMI-8226
CAKI-1 = test system: CAKI-1
SK-MEL-2 = test system: SK-MEL-2
MDA-N = test system: MDA-N
MDA-MB-435 = test system: MDA-MB-435
Malme-3M = test system: Malme-3M
A549 = test system: A549
KM12 = test system: KM12
COLO 205 = test system: COLO 205
LOX IMVI = test system: LOX IMVI
UO-31 = test system: UO-31
OVCAR-5 = test system: OVCAR-5
OVCAR-4 = test system: OVCAR-4
IGROV-1 = test system: IGROV-1
CCRF-CEM = test system: CCRF-CEM
HT-29 = test system: HT-29
PC-3 = test system: PC-3
HOP-62 = test system: HOP-62
UACC-62 = test system: UACC-62
EKVX = test system: EKVX
SR = test system: SR

CC(=O)OCC1OC(OC2CC3C(C)(C)C(O)CC[C@]3(C)C3CCC45CC4(CCC5[C@@H](C)CC(O)C(O)C(C)(C)O)[C@]23C)C(O)C(O)C1O (some centres not stated)
GI50 (HCC 2998): > 10 µM (inactive) | GI50 (HCT-116): > 10 µM (inactive) | GI50 (SNB-19): > 10 µM (inactive) | GI50 (UACC-257): > 10 µM (inactive) | GI50 (SW-620): > 10 µM (inactive) | GI50 (NCI-H460): > 10 µM (inactive) | GI50 (MCF7): > 10 µM (inactive) | GI50 (SN12C): > 10 µM (inactive) | GI50 (SK-MEL-5): > 10 µM (inactive) | GI50 (T47D): > 10 µM (inactive) | GI50 (SF-539): > 10 µM (inactive) | GI50 (SF-295): > 10 µM (inactive) | GI50 (NCI-H226): > 10 µM (inactive) | GI50 (DU-145): > 10 µM (inactive) | GI50 (NCI/ADR-RES): > 10 µM (inactive) | GI50 (Hs-578T): > 10 µM (inactive) | GI50 (RXF 393): > 10 µM (inactive) | GI50 (HL-60): > 10 µM (inactive) | GI50 (ACHN): > 10 µM (inactive) | GI50 (BT-549): > 10 µM (inactive) | GI50 (OVCAR-3): > 10 µM (inactive) | GI50 (SF-268): > 10 µM (inactive) | GI50 (SK-OV-3): > 10 µM (inactive) | GI50 (U-251): > 10 µM (inactive) | GI50 (SK-MEL-28): > 10 µM (inactive) | GI50 (NCI-H522): > 10 µM (inactive) | GI50 (NCI-H23): > 10 µM (inactive) | GI50 (HOP-92): > 10 µM (inactive) | GI50 (MDA-MB-231): > 10 µM (inactive) | GI50 (K562): > 10 µM (inactive) | GI50 (HCT-15): > 10 µM | GI50 (M14): > 10 µM (inactive) | GI50 (OVCAR-8): > 10 µM (inactive) | GI50 (SNB-75): > 10 µM (inactive) | GI50 (TK-10): > 10 µM (inactive) | GI50 (786-0): > 10 µM (inactive) | GI50 (A498): > 10 µM (inactive) | GI50 (MOLT-4): > 10 µM (inactive) | GI50 (RPMI-8226): > 10 µM (inactive) | GI50 (CAKI-1): > 10 µM (inactive) | GI50 (SK-MEL-2): > 10 µM (inactive) | GI50 (MDA-N): > 10 µM (inactive) | GI50 (MDA-MB-435): > 10 µM (inactive) | GI50 (Malme-3M): > 10 µM (inactive) | GI50 (A549): > 10 µM (inactive) | GI50 (KM12): > 10 µM (inactive) | GI50 (COLO 205): > 10 µM (inactive) | GI50 (LOX IMVI): > 10 µM (inactive) | GI50 (UO-31): > 10 µM (inactive) | GI50 (OVCAR-5): > 10 µM (inactive) | GI50 (OVCAR-4): > 10 µM (inactive) | GI50 (IGROV-1): > 10 µM (inactive) | GI50 (CCRF-CEM): > 10 µM (inactive) | GI50 (HT-29): > 10 µM (inactive) | GI50 (PC-3): > 10 µM (inactive) | GI50 (HOP-62): > 10 µM (inactive) | GI50 (UACC-62): > 10 µM (inactive) | GI50 (EKVX): > 10 µM (inactive)

O=C(O)C(Cc1c[nH]cn1)N1C(=O)c2ccccc2C1=O (configuration not stated)
GI50 (HCT-116): > 100 µM (inactive) | GI50 (SNB-19): > 100 µM (inactive) | GI50 (UACC-257): > 100 µM (inactive) | GI50 (SW-620): > 100 µM (inactive) | GI50 (NCI-H460): > 100 µM (inactive) | GI50 (MCF7): > 100 µM (inactive) | GI50 (SN12C): > 100 µM (inactive) | GI50 (SK-MEL-5): > 100 µM (inactive) | GI50 (T47D): > 100 µM (inactive) | GI50 (SR): > 100 µM (inactive) | GI50 (SF-295): 30 µM (inactive) | GI50 (NCI-H226): > 100 µM (inactive) | GI50 (DU-145): > 100 µM (inactive) | GI50 (NCI/ADR-RES): > 100 µM (inactive) | GI50 (Hs-578T): > 100 µM (inactive) | GI50 (RXF 393): > 100 µM (inactive) | GI50 (ACHN): > 100 µM (inactive) | GI50 (BT-549): > 100 µM (inactive) | GI50 (OVCAR-3): 50.5 µM (inactive) | GI50 (SF-268): > 100 µM (inactive) | GI50 (U-251): > 100 µM (inactive) | GI50 (SK-MEL-28): > 100 µM (inactive) | GI50 (NCI-H522): > 100 µM (inactive) | GI50 (NCI-H23): > 100 µM (inactive) | GI50 (HOP-92): > 100 µM (inactive) | GI50 (MDA-MB-231): 38 µM (inactive) | GI50 (K562): > 100 µM (inactive) | GI50 (HCT-15): > 100 µM | GI50 (M14): > 100 µM (inactive) | GI50 (OVCAR-8): > 100 µM (inactive) | GI50 (SNB-75): > 100 µM (inactive) | GI50 (TK-10): > 100 µM (inactive) | GI50 (786-0): > 100 µM (inactive) | GI50 (A498): > 100 µM (inactive) | GI50 (MOLT-4): > 100 µM (inactive) | GI50 (RPMI-8226): > 100 µM (inactive) | GI50 (CAKI-1): > 100 µM (inactive) | GI50 (SK-MEL-2): 6.19 µM (inactive) | GI50 (MDA-N): > 100 µM (inactive) | GI50 (MDA-MB-435): > 100 µM (inactive) | GI50 (Malme-3M): 18.9 µM (inactive) | GI50 (A549): > 100 µM (inactive) | GI50 (KM12): > 100 µM (inactive) | GI50 (COLO 205): > 100 µM (inactive) | GI50 (LOX IMVI): > 100 µM (inactive) | GI50 (UO-31): > 100 µM (inactive) | GI50 (OVCAR-5): > 100 µM (inactive) | GI50 (OVCAR-4): > 100 µM (inactive) | GI50 (IGROV-1): > 100 µM (inactive) | GI50 (HT-29): > 100 µM (inactive) | GI50 (PC-3): 18.9 µM (inactive) | GI50 (HOP-62): 12.9 µM (inactive) | GI50 (UACC-62): > 100 µM (inactive) | GI50 (EKVX): > 100 µM (inactive)
